Test results as given in PubChem BioAssay (NCI).
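In this assay, cells in 96-well plates receive the compound at five concentrations for 48 hours. Endpoints are linearly interpolated between the surrounding concentrations. Abbreviation: GI50, concentration required for 50% inhibition of growth. At the TGI there is no net growth.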

Key:
Experiment in all cases: inhibition of tumour cell growth, NCI panel, 48 h
[1] = system: HCT-15 colon
[2] = system: IGROV1 ovarian
[3] = system: M14 melanoma
[4] = system: SK-MEL-5 melanoma
[5] = system: PC-3 prostate
[6] = system: HS 578T breast
[7] = system: OVCAR-4 ovarian
[8] = system: A498 renal
[9] = system: OVCAR-8 ovarian
[10] = system: NCI-H522 lung
[11] = system: MCF7 breast
[12] = system: KM12 colon
[13] = system: RPMI-8226 leukemia
[14] = system: SNB-75 CNS
[15] = system: MDA-MB-468 breast
[16] = system: COLO 205 colon
[17] = system: TK-10 renal
[18] = system: NCI-H226 lung
[19] = system: SK-MEL-2 melanoma
[20] = system: UO-31 renal
[21] = system: LOX IMVI melanoma
[22] = system: SF-268 CNS
[23] = system: MALME-3M melanoma
[24] = system: RXF 393 renal
[25] = system: NCI-H23 lung
[26] = system: HOP-62 NSCLC

Work on `COc1ccc(-c2nc3cc(C)ccc3n2CC(=O)N=Nc2c(O)[nH]c3ccc(Cl)cc23)cc1` yielded a GI50 [1] of 3.64 µM, a TGI [1] greater than 100 µM and a GI50 [2] of 3.22 µM. It also gave a TGI [2] of 24.5 µM, a GI50 [3] of 1.9 µM and a TGI [3] of 4.02 µM. For the same compound, the GI50 [4] was 2.07 µM, the TGI [4] was 4.9 µM and the GI50 [5] was 2.38 µM. For the same compound, the TGI [5] was 8.6 µM, the GI50 [6] was 1.79 µM and the TGI [6] was 6.03 µM. It also gave a GI50 [7] of 2.35 µM, a TGI [7] of 6.5 µM and a GI50 [8] of 3.63 µM. It also gave a TGI [8] greater than 100 µM, a GI50 [9] of 1.82 µM and a TGI [9] of 3.77 µM. It also gave a GI50 [10] of 3.99 µM, a TGI [10] of 22 µM and a GI50 [11] of 2.69 µM. For the same compound, the TGI [11] was 16.2 µM, the GI50 [12] was 3.01 µM and the TGI [12] was 10 µM. It also gave a GI50 [13] of 3.01 µM, a TGI [13] greater than 100 µM and a GI50 [14] of 0.532 µM. For the same compound, the TGI [14] was 4.09 µM, the GI50 [15] was 2.29 µM and the TGI [15] was 5.05 µM. It also gave a GI50 [16] of 3.15 µM, a TGI [16] of 10.2 µM and a GI50 [17] of 3.43 µM. It also gave a TGI [17] greater than 100 µM, a GI50 [18] of 1.9 µM and a TGI [18] of 5.18 µM. The GI50 [19] was 3.25 µM, the TGI [19] was 18.6 µM and the GI50 [20] was 3.81 µM. The TGI [20] was greater than 100 µM, the GI50 [21] was 1.78 µM and the TGI [21] was 3.93 µM. For the same compound, the GI50 [22] was 3 µM, the TGI [22] was greater than 100 µM and the GI50 [23] was 2.12 µM. It also gave a TGI [23] of 4.38 µM, a GI50 [24] of 1.49 µM and a TGI [24] of 3.9 µM. It also gave a GI50 [25] of 2.83 µM, a TGI [25] of 11.3 µM and a GI50 [26] of 2.13 µM.
